Assay results taken from publication PMC10424186 (Journal of Medicinal Chemistry, 2023).
“And” between values parts separate entries of the source, which are not always exact repeats. Equal entries are not always repeated. Where two headings read alike, the source gives them in different places.

Experiments:
human JMJD5 = human JMJD5 (Homo sapiens, UniProt Q8N371); assay: SPE-MS JMJD5 inhibition assay (hydroxylation of RPS6 128–148 peptide); type: biochemical
Excerpt: Synthetic peptides with sequences based on reported human 2OG oxygenase substrates were used in SPE-MS inhibition assays: RPS6, residues 128–148, for JMJD5;[42] HIF-α CODD, residues 558–574, for PHD2;[70] HIF-α CAD, residues 788–822, for FIH;[70] H3_1-15K9me3, histone 3 (H3), residues 1–15 with K9 of H3-bearing three methyl groups at the N^ε-position, K4 of H3 substituted by an alanine residue, and K14 of H3 by an isoleucine residue,[73] for KDM4E; and RPL27A, residues 31–49, for RIOX2 (Mina53).[44] All peptides were prepared as C-terminal amides by GL Biochem (Shanghai) Ltd. A synthetic thioether-linked cyclic peptide, hFX-CP101–119,[48] which was designed based on the reported cellular AspH substrate human coagulation factor X (hFX, residues 101–119; C101 was substituted for a D-alanine residue and C112 for a serine residue),[79] was used as AspH substrate; it was prepared with a C-terminal amide according to literature protocols.[80]
Cosubstrate/cofactor stock solutions [L-ascorbic acid/LAA: 50 mM in MQ-grade water; 2-oxoglutarate/2OG: 10 mM in MQ-grade water; ammonium iron(II) sulfate hexahydrate/FAS/(NH4)2Fe(SO4)2·6H2O: 400 mM in 20 mM HCl diluted to 1 mM in MQ-grade water] were freshly prepared from commercial solids (Sigma-Aldrich) on the day the assays were performed. The JMJD5,[42] PHD2,[70] FIH,[70] KDM4E,[72],[73] RIOX2,[44] and AspH[45] SPE-MS inhibition assays were performed as described in the cited literature, using isolated recombinant human enzymes (His6-thioredoxin-JMJD5,[42] His6-PHD2_181–426,[70] His6-FIH,[70] His6-KDM4E,[72],[73] His6-RIOX2_26–465,[87],[88] and His6-AspH315–758[48],[80]) and synthetic peptide substrates (RPS6_128–148 for JMJD5;[42] HIF-α CODD558–574 for PHD2;[70] HIF-α CAD788–822 for FIH;[70] H3_1–15K9me3 for KDM4E;[73] RPL27A31–49 for RIOX2;[44],[71] and hFX-CP101–119 for AspH;[45],[48] see above). For JMJD5, PHD2, FIH, RIOX2, and AspH, substrate hydroxylation was monitored (+16 Da mass shift), while for the KDM4E substrate, demethylation was monitored (−14 Da mass shift) by SPE-MS.

AspH = target: T1, AspH (Homo sapiens, UniProt Q12797); assay: SPE-MS AspH inhibition assay (hFX-CP101–119 hydroxylation); type: biochemical; settings: Table 2; His6-AspH315–758 0.05 μM, 1.0 μM hFX-CP101–119; n = 2, mean ± SD
T1 construct: N-terminally His6-tagged AspH315–758; made in house; host or cells: Escherichia coli
T1 sequence (Q12797 315-758): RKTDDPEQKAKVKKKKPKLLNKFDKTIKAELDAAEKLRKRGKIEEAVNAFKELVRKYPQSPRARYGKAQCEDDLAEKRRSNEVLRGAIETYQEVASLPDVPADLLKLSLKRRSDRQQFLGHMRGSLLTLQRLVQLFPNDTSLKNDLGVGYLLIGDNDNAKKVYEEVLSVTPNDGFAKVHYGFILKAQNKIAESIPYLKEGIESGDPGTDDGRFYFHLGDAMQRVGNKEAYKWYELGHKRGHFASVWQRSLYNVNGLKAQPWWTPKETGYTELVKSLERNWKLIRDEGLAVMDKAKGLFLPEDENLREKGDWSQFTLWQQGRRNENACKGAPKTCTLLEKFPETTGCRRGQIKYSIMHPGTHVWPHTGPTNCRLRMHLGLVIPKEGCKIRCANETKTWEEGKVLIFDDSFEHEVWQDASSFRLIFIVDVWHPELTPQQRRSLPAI
Protocol: (§1) H3_1-15K9me3, histone 3 (H3), residues 1–15 with K9 of H3-bearing three methyl groups at the N^ε-position, K4 of H3 substituted by an alanine residue, and K14 of H3 by an isoleucine residue,[73] for KDM4E; and RPL27A, residues 31–49, for RIOX2 (Mina53).[44]
(§2) Cosubstrate/cofactor stock solutions [L-ascorbic acid/LAA: 50 mM in MQ-grade water; 2-oxoglutarate/2OG: 10 mM in MQ-grade water; ammonium iron(II) sulfate hexahydrate/FAS/(NH4)2Fe(SO4)2·6H2O: 400 mM in 20 mM HCl diluted to 1 mM in MQ-grade water] were freshly prepared from commercial solids (Sigma-Aldrich) on the day the assays were performed. The JMJD5,[42] PHD2,[70] FIH,[70] KDM4E,[72],[73] RIOX2,[44] and AspH[45] […] For JMJD5, PHD2, FIH, RIOX2, and AspH, substrate hydroxylation was monitored (+16 Da mass shift), while for the KDM4E substrate, demethylation was monitored (−14 Da mass shift) by SPE-MS.

KDM4E [1] = target: T2, KDM4E (Homo sapiens, UniProt B2RXH2); assay: SPE-MS KDM4E inhibition assay (demethylation of H3 1–15 K9me3); type: biochemical; settings: Table 2, 10.0 μM H3 1–15 K9me3, n = 2, mean ± SD
T2 construct: made in house; host or cells: Escherichia coli
T2 sequence (B2RXH2 1-506): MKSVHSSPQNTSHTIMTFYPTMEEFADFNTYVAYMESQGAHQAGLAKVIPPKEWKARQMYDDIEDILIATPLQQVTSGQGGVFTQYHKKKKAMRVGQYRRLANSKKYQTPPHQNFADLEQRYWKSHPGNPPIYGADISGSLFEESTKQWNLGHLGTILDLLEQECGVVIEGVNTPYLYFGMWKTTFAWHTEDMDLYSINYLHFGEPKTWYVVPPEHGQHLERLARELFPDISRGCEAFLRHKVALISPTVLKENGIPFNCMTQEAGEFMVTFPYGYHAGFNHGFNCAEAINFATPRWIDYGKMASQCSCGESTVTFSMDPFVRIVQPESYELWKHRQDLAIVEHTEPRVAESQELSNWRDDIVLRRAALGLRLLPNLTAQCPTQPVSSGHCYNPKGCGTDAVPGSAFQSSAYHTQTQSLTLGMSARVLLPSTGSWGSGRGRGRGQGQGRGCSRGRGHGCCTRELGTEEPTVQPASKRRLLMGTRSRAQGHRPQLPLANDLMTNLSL
Protocol: as §1, §2

PHD2 = target: T3, PHD2 (Homo sapiens, UniProt Q9GZT9); assay: SPE-MS PHD2 inhibition assay (HIF-1α CODD hydroxylation); type: biochemical; settings: Table 2; PHD2 181–426 […], 5.0 μM HIF-1α CODD; n = 2, mean ± SD
T3 construct: His6-PHD2_181–426; made in house; host or cells: Escherichia coli
T3 sequence (Q9GZT9 181-426): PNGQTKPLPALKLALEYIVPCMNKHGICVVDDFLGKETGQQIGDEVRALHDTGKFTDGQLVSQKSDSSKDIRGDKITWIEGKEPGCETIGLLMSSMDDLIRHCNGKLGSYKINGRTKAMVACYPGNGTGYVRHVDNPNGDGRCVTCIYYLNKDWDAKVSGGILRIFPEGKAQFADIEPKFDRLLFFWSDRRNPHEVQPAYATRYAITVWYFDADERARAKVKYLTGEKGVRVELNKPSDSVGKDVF
Protocol: as §1, §2

KDM4E [2] = target: T2, KDM4E; settings: Supporting Table S1; reported FDH-coupled spectrophotometric assay; ref SI 17; cited from earlier work
[3] = Supporting Table S1, JMJD5 […], 2OG 2.0 μM, RPS6 128-148 2.0 μM, pH 7.5, 20 °C, n = 3, mean ± SD, read-out: IC50 JMJD5
[4] = supplementary CSV, read-out: IC50 JMJD5
[5] = Table 1, JMJD5 […], 2OG 2.0 μM, Fe(II) 2.0 μM, LAA 100 μM, RPS6 128–148 2.0 μM, pH 7.5, 20 °C, n = 3, mean ± SD, read-out: IC50 JMJD5
[6] = isolated recombinant JMJD5, SPE-MS, approximate values, read-out: IC50 for JMJD5 inhibition
[7] = Table 2, JMJD5 […], 2OG 2.0 μM, Fe(II) 2.0 μM, LAA 100 μM, RPS6 128–148 2.0 μM, n = 3, mean ± SD, read-out: IC50 JMJD5
[8] = isolated recombinant JMJD5, SPE-MS

Chain of human JMJD5 (Q8N371 whole entry, the tested form may be a part): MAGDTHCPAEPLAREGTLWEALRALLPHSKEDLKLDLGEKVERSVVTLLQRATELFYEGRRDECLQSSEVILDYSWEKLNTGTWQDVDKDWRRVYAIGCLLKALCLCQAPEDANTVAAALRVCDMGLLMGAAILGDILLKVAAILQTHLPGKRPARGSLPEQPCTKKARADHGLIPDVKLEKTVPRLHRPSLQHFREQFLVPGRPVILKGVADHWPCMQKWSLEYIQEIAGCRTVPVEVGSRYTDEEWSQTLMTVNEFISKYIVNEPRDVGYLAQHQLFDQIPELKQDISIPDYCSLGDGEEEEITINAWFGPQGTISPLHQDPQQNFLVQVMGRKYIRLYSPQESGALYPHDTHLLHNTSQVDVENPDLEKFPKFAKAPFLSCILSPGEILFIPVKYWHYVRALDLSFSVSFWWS

| Structure (SMILES) | IC50 (human JMJD5; [3]) | IC50 (human JMJD5; [4]) | IC50 (human JMJD5; [5]) | further results |
| --- | --- | --- | --- | --- |
| O=C(O)c1ccnc(C(=O)O)c1NCCCc1ccccc1 [Compound 11] |  | 19.7 ± 3 µM | 19.7 ± 3 µM |  |
| O=C(O)c1cc(C(=O)O)c(NCc2ccc(C(F)(F)F)cc2)cn1 [Compound 20g] |  |  |  | IC50 (AspH): 1.2 ± 0.1 µM; IC50 (KDM4E [1]): 6.2 ± 1.1 µM; IC50 (PHD2): > 50 µM |
| O=C(O)c1ccnc(C(=O)O)c1NCc1ccccc1 [Compound 3] |  | 9.5 ± 2.2 µM | 9.5 ± 2.2 µM |  |
| CC(Nc1c(C(=O)O)ccnc1C(=O)O)c1ccccc1 (stereo not shown) [Compound 8] |  | 3.1 ± 1.5 µM | 3.1 ± 1.5 µM | JMJD5 inhibition less efficient than 2,4-PDCA (1) (human JMJD5; compared with 1): ~6 fold and ~ 5 fold; JMJD5 inhibition more efficient than 3 (human JMJD5; compared with 3): ~3 fold; IC50 (human JMJD5; [6]): ~3.1 µM |
| O=C(O)c1ccnc(C(=O)O)c1Nc1ccccc1 [Compound 21] | > 50 µM | > 50 µM |  | IC50 (KDM4E [2]): 19 µM |
| O=C(O)c1ccnc(C(=O)O)c1Nc1ccccc1[N+](=O)[O-] [Compound 2] |  | 17.9 ± 2.6 µM | 17.9 ± 2.6 µM | IC50 (human JMJD5; [6]): ~17.9 µM and ~16.8 µM |
| O=C(O)c1cc(C(=O)O)c(NCCCCc2ccccc2)cn1 [Compound 20d, 5-((4-phenylbutyl)amino)pyridine-2,4-dicarboxylic acid] |  |  |  | IC50 (AspH): 1.9 ± 0.2 µM; IC50 (human JMJD5; [7]): 0.4 ± 0.2 µM; IC50 (KDM4E [1]): 3.6 ± 0.7 µM; IC50 (PHD2): 20.4 ± 0.8 µM |
| O=C(O)c1ccncc1NCc1ccccc1 [Compound 4] |  | > 50 µM | > 50 µM | JMJD5 inhibition (in words) (human JMJD5; [8]): does not inhibit JMJD5 |
| O=C(O)c1ccnc(C(=O)O)c1NCCc1ccccc1 [Compound 10] |  | 19.6 ± 3 µM | 19.6 ± 3 µM |  |
| O=C(O)c1ccnc(C(=O)O)c1NCCCCc1ccccc1 [Compound 12] |  | 20.8 ± 0.2 µM | 20.8 ± 0.2 µM |  |
| CC(Nc1cnc(C(=O)O)cc1C(=O)O)c1ccccc1 (stereo not shown) [Compound 20e] |  |  |  | IC50 (AspH): 5.9 ± 1.9 µM; IC50 (human JMJD5; [7]): 17.5 ± 2.5 µM; IC50 (human JMJD5; [6]): ~17.5 µM; IC50 (KDM4E [1]): 22.7 ± 0.4 µM; IC50 (PHD2): > 50 µM |
| O=C(O)c1cc(C(=O)O)c(NCc2ccccc2)cn1 [Compound 20a, 5-(benzylamino)pyridine-2,4-dicarboxylic acid] |  |  |  | IC50 (AspH): 0.5 ± 0.2 µM; IC50 (KDM4E [1]): 3.2 ± 1.6 µM; IC50 (PHD2): > 50 µM |
| O=C(O)c1ccnc(C(=O)O)c1F [Compound 13, 3-fluoro-2,4-PDCA] |  | 27.2 ± 2.9 µM | 27.2 ± 2.9 µM | JMJD5 inhibition (in words) (human JMJD5; [8]): did not efficiently inhibit JMJD5 |
| O=C(O)c1cc(C(=O)O)c(F)cn1 [Compound 15, 5-fluoro-2,4-PDCA] |  | 4.5 ± 0.9 µM | 4.5 ± 0.9 µM | JMJD5 inhibition (in words) (human JMJD5; [8]): inhibits; IC50 (human JMJD5; [6]): ~4.5 µM |
| CCC(Nc1c(C(=O)O)ccnc1C(=O)O)c1ccccc1 (stereo not shown) [Compound 9] |  | 7.5 ± 2 µM | 7.5 ± 2 µM | IC50 (human JMJD5; [6]): ~7.5 µM |
| COc1ccc(CNc2c(C(=O)O)ccnc2C(=O)O)cc1 [Compound 6] |  | 5.8 ± 2.9 µM | 5.8 ± 2.9 µM |  |
| O=C(O)c1ccnc(C(=O)O)c1NCc1ccc(C(F)(F)F)cc1 [Compound 7] |  | 10.4 ± 4.4 µM | 10.4 ± 4.4 µM |  |
| O=C(O)c1ccnc(C(=O)O)c1NCC1CCCCC1 [Compound 5] |  | 25.3 ± 0.5 µM | 25.3 ± 0.5 µM | IC50 (human JMJD5; [6]): ~25.3 µM |

The next lines start with results.

| IC50 (human JMJD5; [3]) | IC50 (human JMJD5; [4]) | IC50 (human JMJD5; [5]) | Structure (SMILES) | further results |
| --- | --- | --- | --- | --- |
| > 50 µM | > 50 µM |  | O=C(O)c1ccncc1NCCc1ccc(Cl)cc1 [Compound 32] |  |
| 46.9 ± 4.6 µM | 46.9 ± 4.6 µM |  | O=C(O)c1ccnc(C(=O)O)c1Nc1ccccc1F [Compound 25] |  |
| > 50 µM | > 50 µM |  | Cc1ccccc1Nc1c(C(=O)O)ccnc1C(=O)O [Compound 26] | IC50 (KDM4E [2]): 41 µM |
| 39.6 µM | 39.6 ± 11.2 µM |  | Nc1ccccc1Nc1c(C(=O)O)ccnc1C(=O)O [Compound 29] |  |
| 41.5 ± 2.2 µM | 41.5 ± 2.2 µM |  | CSc1ccccc1Nc1c(C(=O)O)ccnc1C(=O)O [Compound 28] | IC50 (KDM4E [2]): 48 µM |
| 29.6 ± 4.3 µM | 29.6 ± 4.3 µM |  | COc1ccccc1Nc1c(C(=O)O)ccnc1C(=O)O [Compound 27] | IC50 (KDM4E [2]): 19 µM |
| > 50 µM | > 50 µM |  | O=C(O)c1ccccc1Nc1c(C(=O)O)ccnc1C(=O)O [Compound 24] | IC50 (KDM4E [2]): 166 µM |
| > 50 µM |  |  | COC(=O)c1ccnc(C(=O)OC)c1 [dimethyl 2,4-PDCA, reference compound] | JMJD5 inhibition (in words) (human JMJD5; [8]): does not inhibit isolated recombinant JMJD5; JMJD5 inhibition (in words) (human JMJD5; isolated recombinant JMJD5, SPE-MS, listed as dimethyl ester derivative of 1): does not inhibit isolated recombinant JMJD5 efficiently |
| > 50 µM | > 50 µM |  | CC(Nc1cnccc1C(=O)O)c1ccccc1 (stereo not shown) [Compound 30] |  |
| 10.3 ± 3.1 µM | 10.3 ± 3.1 µM |  | O=C(O)c1ccnc(C(=O)O)c1NCCc1ccc(Cl)cc1 [Compound 31] |  |
